# Results reported in publication PMC10672842, “Anti-Trypanosoma cruzi Activity, Mutagenicity, Hepatocytotoxicity and Nitroreductase Enzyme Evaluation of 3-Nitrotriazole, 2-Nitroimidazole and Triazole Derivatives” (Molecules, 2023).
# Where two headings read alike, the source gives them in different places.
# Experiments:
# [1] = test system: S. typhimurium TA100; settings: for Mutagenicity in the Ames test (verdict): TA100, absence or presence of metabolic activation; for Mutagen classification according to Claxton et al.: TA100, −S9 and +S9
# Procedure: The compounds were tested in a reverse mutation assay preincubation protocol in the absence and presence of metabolic activation following standard protocols previously proposed by Maron and Ames. The histidine-dependent (his^−) strains TA98 and TA100 of Salmonella typhimurium were inoculated in 10 mL of Oxoid nutrient broth No. 2 containing 25 µg/mL ampicillin and incubated overnight (15–18 h) at 37 ± 1 °C on an orbital shaker (CT-712, Cientec, Belo Horizonte, MG, Brazil) at 150 rpm, obtaining a concentration of 1–2 × 10^9 cells/mL, confirmed by titration in nutrient agar plates. Briefly, 100 µL of stationary growth cultures of each strain were preincubated for 20 min on an orbital shaker (150 rpm) at 37 ± 1 °C, with 500 µL of 0.2 M phosphate buffer pH 7.4, or 500 µL of S9 mix 4% (Molecular Toxicology, Baltimore, MD, USA), and 100 µL of compound dilutions (0–5000 µM) or controls. DMSO 1% was used as a negative control. […] After incubation, 2 mL of top agar (0.7% agar, 0.5% NaCl, 0.05 mM L-histidine and D-biotin) at 45 ± 3 °C was added and gently mixed. The final mixture was poured on glucose minimal agar plates (1.5% agar, 10 g/L MgSO4·7H2O; 100 g/L of C6H8O7·H2O; 500 g/L K2HPO4; 175 g/L Na(NH4)HPO4·4H2O, 2% glucose) and incubated for 72 h at 37 ± 1 °C. The results were expressed as the mean of revertant colonies (His^+) per plate, standard deviation (SD) and mutagenicity induction fold (IF), calculated as the ratio between the number of colonies in the test group and the number of colonies in the negative control group. Mutagenic potency was calculated as the slope of the linear portion of the concentration–response function and expressed as revertants/µM. All assays were performed in triplicate and repeated at least two times. Statistical analyses were carried out in GraphPad Prism software (version 5.00, GraphPad Software, Boston, MA, USA).
# [2] = test system: T. cruzi (Tulahuen strain); assay: In vitro anti-T. cruzi evaluation in an intracellular model (trypomastigote and amastigote forms, L929 host cells, β-galactosidase readout); assay type: cell-based, Trypanosoma cruzi; settings: for IC50: Trypanosoma cruzi, TULAHUEN, L929, 96 h, read-out: IC50 T. cruzi; for SI: selectivity index, L929 cells vs T. cruzi
# Procedure: Derivatives 5–10 were evaluated in vitro against T. cruzi in an intracellular model on the trypomastigote and amastigote forms of the parasite of the Tulahuen strain [20]. This model is interesting because it mimics the life cycle of the parasite, as both clinically relevant forms are present in the environment. The mammalian host cells used were fibroblasts from L929 mice.
# This assay was performed as previously described by Buckner et al. (1996) using T. cruzi (Tulahuen strain), which expresses the β-galactosidase gene of Escherichia coli. Infectious trypomastigote forms were obtained by culturing fibroblast monolayers of L929 mice in RPMI-1640 medium (pH 7.2–7.4) without phenol red (Gibco BRL), containing 10% fetal bovine serum and 2 mM glutamine. For the bioassay, 4000 L929 cells in 80 µL of supplemented medium were added to each well of a 96-well microtiter plate. After overnight incubation, 40,000 trypomastigotes in 20 µL were added to the cells and incubated for 2 h. […] The medium was then replaced with compound solutions at 1.0 µg/mL in fresh medium (200 µL), and the plate was incubated for 96 h at 37 °C. After this period, 50 µL of chlorophenol D-galactopyranoside red (500 µM) in 0.5% Nonidet P40 was added to each well, and the plate was incubated for 18 h at 37 °C. After this, the absorbance was measured at 570 nm. Controls with uninfected cells and infected cells treated with benznidazole were performed in parallel. The results are expressed as the percentage of T. cruzi growth inhibition in cells tested with compost compared to infected and untreated cells. The tests were performed in triplicate.
# [3] = In vitro cytotoxicity of L929 cells (AlamarBlue); assay type: cell-based, mice; settings: mouse, four days
# Procedure: For this bioassay, 4000 mammalian cells in 200 µL of RPMI-1640 medium (pH 7.2–7.4) (Gibco BRL) plus 10% fetal bovine serum and 2 mM glutamine were added to each well of a 96-well microtiter plate, which was incubated for three days at 37 °C. […] After this period, 20 µL of AlamarBlue^TM was added to each well, and the plate was incubated for another 4–6 h. Then, the absorbance was measured at 570 nm. Controls with cells not treated and treated with benznidazole were performed in parallel, and triplicates were performed on the same plate. The results are expressed as the percent difference in the reduction between treated (CT) and untreated cells (UT) using the following equation:(1) 117.216Abs570 TC−80.586(Abs600 TC)/117.216Abs570 UT−80.586(Abs600 UT) × 100
# [4] = test system: S. typhimurium TA1535; settings: for Mutagenicity in the Ames test (verdict): TA1535, absence or presence of metabolic activation
compound,measurement,setting,value
"O=C(Cn1ccnc1[N+](=O)[O-])NCc1ccccc1 [BZN, benznidazole, reference compound]",Mutagenic potency (slope of the linear portion of the concentration–response function),"[1]; TA100, +S9",1382.2 revertants/µM
same,IF (induction factor),"[1]; TA100, +S9, 0.5 µM",0.9
same,"revertant His+ colonies, mean ± SD","[1]; TA100, +S9, 0.5 µM",95 ± 3
same,IF (induction factor),"[1]; TA100, +S9, 5 µM",1.0
same,"revertant His+ colonies, mean ± SD","[1]; TA100, +S9, 5 µM",110 ± 8
same,IF (induction factor),"[1]; TA100, +S9, 50 µM",2.5
same,"revertant His+ colonies, mean ± SD","[1]; TA100, +S9, 50 µM",269 ± 13
same,IF (induction factor),"[1]; TA100, +S9, 500 µM",8.6
same,"revertant His+ colonies, mean ± SD","[1]; TA100, +S9, 500 µM",907 ± 10
same,Mutagenicity in the Ames test (verdict),[1],mutagenic
same,Mutagenic potency (slope of the linear portion of the concentration–response function),"[1]; TA100, −S9",1789.9 revertants/µM
same,IF (induction factor),"[1]; TA100, −S9, 0.5 µM",1.0
same,"revertant His+ colonies, mean ± SD","[1]; TA100, −S9, 0.5 µM",130 ± 6
same,IF (induction factor),"[1]; TA100, −S9, 5 µM",1.6
same,"revertant His+ colonies, mean ± SD","[1]; TA100, −S9, 5 µM",217 ± 13
same,IF (induction factor),"[1]; TA100, −S9, 50 µM",6.2
same,"revertant His+ colonies, mean ± SD","[1]; TA100, −S9, 50 µM",852 ± 40
same,IF (induction factor),"[1]; TA100, −S9, 500 µM",28.2
same,"revertant His+ colonies, mean ± SD","[1]; TA100, −S9, 500 µM",3848 ± 11
same,IF (induction factor),"[1]; TA100, −S9, 5000 µM",53.0
same,"revertant His+ colonies, mean ± SD","[1]; TA100, −S9, 5000 µM",7264 ± 62
same,Mutagen classification according to Claxton et al.,[1],extremely high mutagen
same,IC50,[2],1.5 ± 0.4 µM
same,SI,[2],1409
same,CC50 at 4 days,[3],2110 ± 270 µM
same,IF (induction factor),"[4]; TA1535, +S9, 0.5 µM",1.3
same,"revertant His+ colonies, mean ± SD","[4]; TA1535, +S9, 0.5 µM",13 ± 1
same,IF (induction factor),"[4]; TA1535, +S9, 5 µM",1.6
same,"revertant His+ colonies, mean ± SD","[4]; TA1535, +S9, 5 µM",17 ± 3
same,IF (induction factor),"[4]; TA1535, +S9, 50 µM",2.1
same,"revertant His+ colonies, mean ± SD","[4]; TA1535, +S9, 50 µM",22 ± 3
same,IF (induction factor),"[4]; TA1535, +S9, 500 µM",2.9
same,"revertant His+ colonies, mean ± SD","[4]; TA1535, +S9, 500 µM",31 ± 2
same,IF (induction factor),"[4]; TA1535, +S9, 5000 µM",3.0
same,"revertant His+ colonies, mean ± SD","[4]; TA1535, +S9, 5000 µM",32 ± 4
same,Mutagenicity in the Ames test (verdict),[4],mutagenic
same,IF (induction factor),"[4]; TA1535, −S9, 0.5 µM",1.5
same,"revertant His+ colonies, mean ± SD","[4]; TA1535, −S9, 0.5 µM",11 ± 2
same,IF (induction factor),"[4]; TA1535, −S9, 5 µM",1.5
same,"revertant His+ colonies, mean ± SD","[4]; TA1535, −S9, 5 µM",11 ± 5
same,IF (induction factor),"[4]; TA1535, −S9, 50 µM",1.5
same,"revertant His+ colonies, mean ± SD","[4]; TA1535, −S9, 50 µM",11 ± 1
same,IF (induction factor),"[4]; TA1535, −S9, 500 µM",2.5
same,"revertant His+ colonies, mean ± SD","[4]; TA1535, −S9, 500 µM",18 ± 4
same,IF (induction factor),"[4]; TA1535, −S9, 5000 µM",4.9
same,"revertant His+ colonies, mean ± SD","[4]; TA1535, −S9, 5000 µM",36 ± 5
"O=[N+]([O-])c1nccn1CC(O)c1ccc(F)cc1F (stereo not shown) [Compound 9, 1-(2,4-Difluorophenyl)-2-(2-nitro-1H-imidazol-1-yl)ethanol]",Mutagenic potency (slope of the linear portion of the concentration–response function),"[1]; TA100, +S9",292.1 revertants/µM
same,IF (induction factor),"[1]; TA100, +S9, 0.5 µM",1.5
same,"revertant His+ colonies, mean ± SD","[1]; TA100, +S9, 0.5 µM",159 ± 7
same,IF (induction factor),"[1]; TA100, +S9, 5 µM",2.1
same,"revertant His+ colonies, mean ± SD","[1]; TA100, +S9, 5 µM",218 ± 14
same,IF (induction factor),"[1]; TA100, +S9, 50 µM",2.2
same,"revertant His+ colonies, mean ± SD","[1]; TA100, +S9, 50 µM",233 ± 48
same,IF (induction factor),"[1]; TA100, +S9, 500 µM",9.7
same,"revertant His+ colonies, mean ± SD","[1]; TA100, +S9, 500 µM",1025 ± 16
same,IF (induction factor),"[1]; TA100, +S9, 5000 µM",11.5
same,"revertant His+ colonies, mean ± SD","[1]; TA100, +S9, 5000 µM",1216 ± 113
same,Mutagenicity in the Ames test (verdict),[1],mutagenic
same,Mutagenic potency (slope of the linear portion of the concentration–response function),"[1]; TA100, −S9",250.3 revertants/µM
same,IF (induction factor),"[1]; TA100, −S9, 0.5 µM",1.0
same,"revertant His+ colonies, mean ± SD","[1]; TA100, −S9, 0.5 µM",73 ± 5
same,IF (induction factor),"[1]; TA100, −S9, 5 µM",1.2
same,"revertant His+ colonies, mean ± SD","[1]; TA100, −S9, 5 µM",88 ± 7
same,IF (induction factor),"[1]; TA100, −S9, 50 µM",2.3
same,"revertant His+ colonies, mean ± SD","[1]; TA100, −S9, 50 µM",164 ± 16
same,IF (induction factor),"[1]; TA100, −S9, 500 µM",4.9
same,"revertant His+ colonies, mean ± SD","[1]; TA100, −S9, 500 µM",347 ± 24
same,IF (induction factor),"[1]; TA100, −S9, 5000 µM",16.7
same,"revertant His+ colonies, mean ± SD","[1]; TA100, −S9, 5000 µM",1195 ± 160
same,Mutagen classification according to Claxton et al.,[1],highly inductive mutagen
same,IC50,"[2]; Tulahuen strain, intracellular trypomastigote and amastigote forms in L929 fibroblasts, 96 h",3.05 ± 0.07 µM
same,times more potent against T. cruzi than 6,[2]; ratio of IC50 T. cruzi to 2-nitroimidazole ketone 6,approximately 30
same,SI,[2],>131
same,CC50 at 4 days,[3],> 400 µM
same,IF (induction factor),"[4]; TA1535, +S9, 0.5 µM",1.3
same,"revertant His+ colonies, mean ± SD","[4]; TA1535, +S9, 0.5 µM",14 ± 2
same,IF (induction factor),"[4]; TA1535, +S9, 5 µM",2.1
same,"revertant His+ colonies, mean ± SD","[4]; TA1535, +S9, 5 µM",23 ± 1
same,IF (induction factor),"[4]; TA1535, +S9, 50 µM",2.2
same,"revertant His+ colonies, mean ± SD","[4]; TA1535, +S9, 50 µM",24 ± 1
same,"revertant His+ colonies, mean ± SD","[4]; TA1535, +S9, 500 µM",Cytotoxic
same,Mutagenicity in the Ames test (verdict),[4],mutagenic
same,IF (induction factor),"[4]; TA1535, −S9, 0.5 µM",1.8
same,"revertant His+ colonies, mean ± SD","[4]; TA1535, −S9, 0.5 µM",14 ± 1
same,IF (induction factor),"[4]; TA1535, −S9, 5 µM",1.8
same,"revertant His+ colonies, mean ± SD","[4]; TA1535, −S9, 5 µM",14 ± 4
same,IF (induction factor),"[4]; TA1535, −S9, 50 µM",2.8
same,"revertant His+ colonies, mean ± SD","[4]; TA1535, −S9, 50 µM",22 ± 1
same,IF (induction factor),"[4]; TA1535, −S9, 500 µM",2.0
same,"revertant His+ colonies, mean ± SD","[4]; TA1535, −S9, 500 µM",16 ± 3
same,"revertant His+ colonies, mean ± SD","[4]; TA1535, −S9, 5000 µM",Cytotoxic
